Laboratory results as given in patent US20230041743A1, “1,8-NAPHTHYRIDIN-2-ONE COMPOUNDS FOR THE TREATMENT OF AUTOIMMUNE DISEASE” (Hoffmann-La Roche Inc., priority 2019, published 2023).

molecular target: T1, human TLR8 (Homo sapiens, UniProt Q9NR97); experiment: HEK293-Blue-hTLR-8 cells assay (SEAP reporter, R848 stimulation); format: cell-based; conditions: HEK293-Blue-hTLR8 cells, R848 ligand, 20 hrs incubation; read-out: HEK/hTLR8 IC50
T1 construct: host or cells: HEK293 (HEK-Blue hTLR8)
T1 sequence (Q9NR97 27-1041): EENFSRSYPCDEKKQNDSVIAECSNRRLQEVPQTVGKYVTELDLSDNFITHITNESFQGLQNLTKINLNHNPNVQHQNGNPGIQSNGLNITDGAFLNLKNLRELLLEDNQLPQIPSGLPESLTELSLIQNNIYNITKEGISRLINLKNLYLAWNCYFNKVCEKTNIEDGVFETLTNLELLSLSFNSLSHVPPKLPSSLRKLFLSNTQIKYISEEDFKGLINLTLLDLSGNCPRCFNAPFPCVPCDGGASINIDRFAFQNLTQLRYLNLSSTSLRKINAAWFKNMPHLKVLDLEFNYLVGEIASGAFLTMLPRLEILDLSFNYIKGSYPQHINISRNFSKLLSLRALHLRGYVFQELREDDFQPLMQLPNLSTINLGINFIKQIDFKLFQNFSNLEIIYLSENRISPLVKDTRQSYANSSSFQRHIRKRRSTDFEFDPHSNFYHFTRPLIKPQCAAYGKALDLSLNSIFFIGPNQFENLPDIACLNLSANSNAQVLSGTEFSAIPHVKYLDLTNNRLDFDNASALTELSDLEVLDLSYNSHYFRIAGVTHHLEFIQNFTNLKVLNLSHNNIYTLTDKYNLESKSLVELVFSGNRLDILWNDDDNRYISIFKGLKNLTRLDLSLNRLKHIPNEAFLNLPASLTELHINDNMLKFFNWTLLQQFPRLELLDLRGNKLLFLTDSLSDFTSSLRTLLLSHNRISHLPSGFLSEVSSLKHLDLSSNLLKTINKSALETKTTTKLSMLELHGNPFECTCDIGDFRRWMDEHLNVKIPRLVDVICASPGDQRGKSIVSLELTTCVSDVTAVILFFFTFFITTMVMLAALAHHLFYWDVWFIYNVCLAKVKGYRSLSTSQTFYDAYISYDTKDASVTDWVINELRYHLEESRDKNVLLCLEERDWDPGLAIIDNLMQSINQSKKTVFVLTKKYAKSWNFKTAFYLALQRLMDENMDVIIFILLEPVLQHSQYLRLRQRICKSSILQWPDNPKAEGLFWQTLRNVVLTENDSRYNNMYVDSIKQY
From the text: HEK293-Blue-hTLR-8 Cells Assay:
A stable HEK293-Blue-hTLR-8 cell line was purchased from InvivoGen (Cat. #: hkb-htlr8, San Diego, Calif., USA). These cells were originally designed for studying the stimulation of human TLR8 by monitoring the activation of NF-κB. A SEAP (secreted embryonic alkaline phosphatase) reporter gene was placed under the control of the IFN-β minimal promoter fused to five NF-κB and AP-1-binding sites. The SEAP was induced by activating NF-κB and AP-1 via stimulating HEK-Blue hTLR8 cells with TLR8 ligands. Therefore the reporter expression was declined by TLR8 antagonist under the stimulation of a ligand, such as R848, for incubation of 20 hrs. The cell culture supernatant SEAP reporter activity was determined using QUANTI-Blue™ kit (Cat. #: rep-qb1, Invivogen, San Diego, Ca, USA) at a wavelength of 640 nm, a detection medium that turns purple or blue in the presence of alkaline phosphatase.
HEK293-Blue-hTLR8 cells were incubated at a density of 250,000-450,000 cells/mL in a volume of 170 μL in a 96-well plate in Dulbecco's Modified Eagle's medium (DMEM) containing 4.5 g/L glucose, 50 U/mL penicillin, […], […], 2 mM L-glutamine, 10% (v/v) heat-inactivated fetal bovine serum with addition of 20 μL test compound in a serial dilution in the presence of final DMSO at 1% and 10 μL of 60 uM R848 in above DMEM, perform incubation under 37° C. in a CO2 incubator for 20 hrs. Then 20 μL of the supernatant from each well was incubated with 180 μL Quanti-blue substrate solution at 37° C. for 2 hrs and the absorbance was read at 620-655 nm using a spectrophotometer. The signaling pathway that TLR8 activation leads to downstream NF-κB activation has been widely accepted, and therefore similar reporter assay was modified for evaluating TLR8 antagonist.

IC50 [nM] | Structure (SMILES)
4.4 | C[C@@H]1CN(c2cc(=O)n(C)c3ncccc23)C[C@@H]2c3ccc([C@@H]4C[C@H]5COC[C@@H](C4)N5)cc3CN12 [Example 28B, 4-[(4R,10bS)-4-methyl-8-(exo-3-oxa-9-azabicyclo[3.3.1]nonan-7-yl)-3,4,6,10b-tetrahydro-1H-pyrazino[2,1-a]isoindol-2-yl]-1-methyl-1,8-naphthyridin-2-one]
1 | C[C@@H]1CN(c2cc(=O)n(C)c3ncccc23)C[C@@H]2c3ccc(OCCN(C)C)cc3CN12 [Example 23, 4-[(4R,10bS)-8-[2-(dimethylamino)ethoxy]-4-methyl-3,4,6,10b-tetrahydro-1H-pyrazino[2,1-a]isoindol-2-yl]-1-methyl-1,8-naphthyridin-2-one]
2.6 | C[C@@H]1CN(c2cc(=O)n(C)c3ncccc23)C[C@@H]2c3ccc(C4CCCNC4)cc3CN12 (stereo partly drawn) [Example 25, 4-[(4R,10bS)-4-methyl-8-(3-piperidyl)-3,4,6,10b-tetrahydro-1H-pyrazino[2,1-a]isoindol-2-yl]-1-methyl-1,8-naphthyridin-2-one]
1.4 | C[C@@H]1CN(c2cc(=O)n(C)c3ncccc23)C[C@@H]2c3ccc(C4CCNCC4)cc3CN12 [Example 24, 4-[(4R,10bS)-4-methyl-8-(4-piperidyl)-3,4,6,10b-tetrahydro-1H-pyrazino[2,1-a]isoindol-2-yl]-1-methyl-1,8-naphthyridin-2-one]
1.3 | C[C@@H]1CN(c2cc(=O)n(C)c3ncccc23)C[C@@H]2c3ccc(N4CCN[C@@H](C)C4)cc3CN12 [Example 13, 4-[(4R,10bS)-4-methyl-8-[(3S)-3-methylpiperazin-1-yl]-3,4,6,10b-tetrahydro-1H-pyrazino[2,1-a]isoindol-2-yl]-1-methyl-1,8-naphthyridin-2-one]
6.5 | C[C@@H]1CN(c2cc(=O)n(C)c3ncccc23)C[C@@H]2c3ccc(C4CCNC4)cc3CN12 (stereo partly drawn) [Example 26, 4-[(4R,10bS)-4-methyl-8-pyrrolidin-3-yl-3,4,6,10b-tetrahydro-1H-pyrazino[2,1-a]isoindol-2-yl]-1-methyl-1,8-naphthyridin-2-one]
3.9 | C[C@@H]1CN(c2cc(=O)n(C)c3ncccc23)C[C@@H]2c3ccc(N4CCC[C@@H](N)C4)cc3CN12 [Example 16, 4-[(4R,10bS)-8-[(3R)-3-amino-1-piperidyl]-4-methyl-3,4,6,10b-tetrahydro-1H-pyrazino[2,1-a]isoindol-2-yl]-1-methyl-1,8-naphthyridin-2-one]

Continued, compound first:

Structure (SMILES) | IC50 [nM]
CO[C@H]1CCN(c2ccc3c(c2)CN2[C@H](C)CN(c4cc(=O)n(C)c5ncccc45)C[C@H]32)C[C@@H]1N [Example 9, 4-[(4R,10bS)-8-[(3S,4S)-3-amino-4-methoxy-1-piperidyl]-4-methyl-3,4,6,10b-tetrahydro-1H-pyrazino[2,1-a]isoindol-2-yl]-1-methyl-1,8-naphthyridin-2-one] | 1.5
C[C@@H]1CN(c2cc(=O)n(C)c3ncccc23)C[C@@H]2c3ccc([C@H]4C[C@H]5COC[C@@H](C4)N5)cc3CN12 [Example 28A, 4-[(4R,10bS)-4-methyl-8-(endo-3-oxa-9-azabicyclo[3.3.1]nonan-7-yl)-3,4,6,10b-tetrahydro-1H-pyrazino[2,1-a]isoindol-2-yl]-1-methyl-1,8-naphthyridin-2-one] | 1.7
C[C@@H]1CN(c2cc(=O)n(C)c3ncccc23)C[C@@H]2c3ccc(N4CC5(CN(C)C5)C4)cc3CN12 [Example 2, 4-[(4R,10bS)-4-methyl-8-(6-methyl-2,6-diazaspiro[3.3]heptan-2-yl)-3,4,6,10b-tetrahydro-1H-pyrazino[2,1-a]isoindol-2-yl]-1-methyl-1,8-naphthyridin-2-one] | 1.7
C[C@@H]1CN(c2cc(=O)n(C)c3ncccc23)C[C@@H]2c3ccc(N4CCNCC4)cc3CN12 [Example 12, 4-[(4R,10bS)-4-methyl-8-piperazin-1-yl-3,4,6,10b-tetrahydro-1H-pyrazino[2,1-a]isoindol-2-yl]-1-methyl-1,8-naphthyridin-2-one] | 0.8
C[C@@H]1CN(c2cc(=O)n(C)c3ncccc23)C[C@@H]2c3ccc(N4CC5CCC(C4)N5)cc3CN12 [Example 21, 4-[(4R,10bS)-8-(3,8-diazabicyclo[3.2.1]octan-3-yl)-4-methyl-3,4,6,10b-tetrahydro-1H-pyrazino[2,1-a]isoindol-2-yl]-1-methyl-1,8-naphthyridin-2-one] | 1.8
